Consider 28 compounds from patent US20240327401A1, “FUSED RING COMPOUND, PHARMACEUTICAL COMPOSITION, AND APPLICATION THEREOF” (EVOPOINT BIOSCIENCES CO., LTD., priority 2021, published 2024).

Assay [1] deals with ERK phosphorylation in DLD-1 cells. In words: In-cell Western blot assay for ERK phosphorylation in DLD-1 cells. It is filed as cell-based. Conditions: Homo sapiens, p-ERK signal corrected using DMSO and BI-3406, four-parameter fit. The method, then:
Efficacy Example 1: In-cell Western Blot Assay for ERK Phosphorylation in DLD-1 Cells
DLD-1 cells (ATCC, CCL-221) were thawed and cultured in a culture medium containing RPMI1640 (Gibco, A10491-01), 10% fetal bovine serum (FBS) (Transgene, FS201-02) and 1% antibiotic P/S (Gibco, 15140-122) for 3 days until the cell viability was good. The cells were inoculated into a 384-well plate and incubated at 37° C. with 5% CO2 overnight. A test compound, a positive control compound, and a negative control were added. The compound was at concentrations of 10000 nM to 1.52 nM (3-fold dilution) and […], for a total of 10 concentrations. The mixture was well mixed and incubated at 37° C. with 5% CO2. The cells were washed twice with PBS (Solarbio, P1010), and then a blocking buffer was added. After 1 h of blocking at room temperature, a primary antibody mixture (phospho-p44/42 MAPK (T202/Y204) Rabbit mAb (CST, […]), GAPDH (D4C6R) Mouse mAb) (CST, 97166S) was added, followed by overnight incubation at 4° C. The cells were washed 3 times with PBST (PBS containing 0.05% Tween-20 (Solarbio, T8220)), and a secondary antibody mixture (goat anti rabbit 800CW (LI-COR, 926-32211), goat anti mouse 680RD (LI-COR, 926-68070)) was added, followed by incubation at room temperature in the dark. The 384-well plate was reversed and centrifuged at 1000 rpm for 1 min, and read on an Odyssey CLx fluorescence imaging system (LI-COR) to obtain fluorescence signal values, which were corrected using DMSO and BI-3406.
[formula] • H=Ave (DMSO) • L=Ave (BI-3406) • SD (H)=STDEV (DMSO) • SD (L)=STDEV (BI-3406)
The IC50 values of the compounds were calculated using a four-parameter fitting algorithm, specifically as follows:
[formula] • X: Log of cpd concentration • Y: Ave (relative pERK) • Top and Bottom: Plateaus in same units as Y • log IC50: same log units as X • HillSlope: Slope factor or Hill slope.

Assay [2] addresses T1, SOS1/KRAS G12C protein binding (Homo sapiens, UniProt Q07889).
T1 construct: His-SOS1 (aa 564-1049) protein; purchased Pharmaron Beijing Co., Ltd. 20200717 (His-SOS1); 20200707 (KRAS G12C)
T1 sequence (Q07889 564-1049): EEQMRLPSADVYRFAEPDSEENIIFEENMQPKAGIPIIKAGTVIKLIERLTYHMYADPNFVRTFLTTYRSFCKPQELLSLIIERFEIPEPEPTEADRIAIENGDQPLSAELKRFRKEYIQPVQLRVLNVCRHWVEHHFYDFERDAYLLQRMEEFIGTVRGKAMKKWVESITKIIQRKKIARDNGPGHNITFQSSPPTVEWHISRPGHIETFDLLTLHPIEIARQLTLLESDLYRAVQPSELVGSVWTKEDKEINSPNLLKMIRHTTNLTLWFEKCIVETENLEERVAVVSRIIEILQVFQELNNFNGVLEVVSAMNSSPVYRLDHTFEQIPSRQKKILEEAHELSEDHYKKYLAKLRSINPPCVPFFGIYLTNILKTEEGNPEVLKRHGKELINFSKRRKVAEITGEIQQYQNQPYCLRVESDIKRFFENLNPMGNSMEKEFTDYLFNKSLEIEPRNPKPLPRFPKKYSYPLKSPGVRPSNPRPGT
In words: Inhibition of SOS1/KRAS G12C protein binding (665 nm/615 nm ratio). The following applies: 15 nM KRAS G12C (aa 1-169), 2.5 nM His-SOS1 (aa 564-1049); nonlinear regression. The method, then: Efficacy Example 2: Evaluation of Inhibition of SOS1/KRAS G12C Protein Binding
A test compound was dissolved in 100% DMSO to give a solution at a concentration of 10 mM. 10 μL of the solution was taken and 3-fold diluted with 100% DMSO to prepare test compound solutions with concentrations of 10000 nM to […], for a total of 11 concentrations. The compound solutions at different concentrations were then transferred to a 384-well plate at 0.1 μL/well using a sonic droplet device Echo (Labcyte), and 2 replicate wells were set for each concentration.
A 15 nM KRAS G12C (aa 1-169) protein (Pharmaron Beijing Co., Ltd., 20200707) was transferred to the 384-well reaction plate at 5 μL/well using the sonic droplet device Echo (Labcyte), and then the reaction plate was centrifuged in a centrifuge (Eppendorf, 5810R) at 1000 rpm/min for 1 min.
A 2.5 nM His-SOS1 (aa 564-1049) protein (Pharmaron Beijing Co., Ltd., 20200717) was transferred to the 384-well reaction plate at 5 μL/well using the sonic droplet device Echo (Labcyte), and then the reaction plate was centrifuged in a centrifuge (Eppendorf, 5810R) at 1000 rpm/min for 1 min and incubated at 25° C. for 15 min.
A mixed solution of Antibody 1 (MAb Anti-6his-Tb cryptate Gold, Cisbio, 61HI2TLA) and Antibody 2 (MAb Anti-GST-XL665, Cisbio, 61GSTXLA) was transferred to the 384-well reaction plate at 10 μL/well using the sonic droplet device Echo (Labcyte), and then the reaction plate was centrifuged in a centrifuge (Eppendorf, 5810R) at 1000 rpm/min for 1 min and incubated at 25° C. for 120 min.
The 665 nm/615 nm optical density ratio was read using an Envision multifunctional microplate reader (Perkin Elmer, Envision 2104).
Analysis of Original Data:
The IC50 values of the compounds were fitted by a nonlinear regression equation of Graphpad Prism 8. The results are shown in Table 2: • Negative control: DMSO
The IC50 (half maximal inhibitory concentration) values of the compounds were calculated using the following non-linear fitting equation:
[formula] • X: Log of cpd concentration • Y: 665 nm/615 nm ratio

SMILES strings stand for the structures.

On to `CCOc1c(=O)n(C2(C)CC2)cc2c(N[C@H](C)c3cccc(C(F)(F)F)c3C)nc(C)nc12` [SZ-022341], for which the IC50 in assay [1] came to 161 nM; in assay [2], 7.76 nM.

For `CCOc1c(=O)n(C2(CF)CC2)cc2c(N[C@H](C)c3cccc(C(F)(F)F)c3C)nc(C)nc12` [SZ-022342], the IC50 was determined as 57 nM in assay [1] and 7.15 nM in assay [2].

Regarding `COc1c(=O)n(C23CC(C2)C3)cc2c(N[C@H](C)c3cccc(C(F)F)c3F)nc(C)nc12` [SZ-022345], the IC50 in assay [1] was determined as 885 nM; in assay [2] it was 21.8 nM.

In the case of `COCC1(n2cc3c(N[C@H](C)c4cccc(C(F)F)c4F)nc(C)nc3c(OC)c2=O)CC1` [SZ-022346], the IC50 in assay [1] is 1020 nM; in assay [2] it was 30 nM.

For `COc1c(=O)n(C2(C(F)F)CC2)cc2c(N[C@H](C)c3cccc(C(F)(F)F)c3)nc(C)nc12` [SZ-022348], the IC50 in assay [1] came to 614 nM; in assay [2], 21.8 nM.

As to `COc1c(=O)n(C2(C(F)F)CC2)cc2c(N[C@H](C)c3cccc(C(F)(F)F)c3F)nc(C)nc12` [SZ-022349], the figures for the IC50 in assay [1] and in assay [2] were 193 nM and 7.23 nM, respectively.

As for `COc1c(=O)n(C2(C(F)F)CC2)cc2c(N[C@H](C)c3cccc(C(C)(F)F)c3)nc(C)nc12` [SZ-022350], the IC50 in assay [1] was 211 nM; in assay [2] it was 16.7 nM.

Regarding `Cc1nc(N[C@H](C)c2cccc(C(F)F)c2F)c2cn(C3(C(F)F)CC3)c(=O)c(O[C@H]3CCOC3)c2n1` [SZ-022351], the IC50 in assay [1] was 555 nM; in assay [2], 21.4 nM.

As for `Cc1nc(N[C@H](C)c2cccc(C(F)F)c2F)c2cn(C3(C(F)F)CC3)c(=O)c(OCCO)c2n1` [SZ-022352], the concentration for half-maximal inhibition (IC50) turned out to be 516 nM in assay [1] and 16 nM in assay [2].

Regarding `Cc1nc(N[C@H](C)c2cccc(C(F)F)c2F)c2cn(C3(C(F)F)CC3)c(=O)c(O[C@@H]3CCOC3)c2n1` [SZ-022353], the IC50 in assay [1] came out at 377 nM; in assay [2], 17.5 nM.

As to `[2H]C([2H])([2H])Oc1c(=O)n(C2(C(F)(F)F)CC2)cc2c(N[C@H](C)c3cccc(C(F)F)c3F)nc(C)nc12` [SZ-022354], the results for the IC50 in assay [1] and in assay [2] were 138 nM and 21.8 nM, respectively.

As to `[2H]C([2H])([2H])Oc1c(=O)n(C2(C(F)F)CC2)cc2c(N[C@H](C)c3cccc(C(C)(F)F)c3F)nc(C)nc12` [SZ-022355], the half-maximal inhibitory concentration (IC50) amounted to 112 nM in assay [1] and 2.47 nM in assay [2].

As for `COc1c(=O)n(C2(C)CC2)cc2c(N[C@H](C)c3cccc(C(C)(F)F)c3F)nc(C)nc12` [SZ-022356], the IC50 turned out to be 218 nM in assay [1] and 4.36 nM in assay [2].

As to `COc1c(=O)n(C2(CF)CC2)cc2c(N[C@H](C)c3cccc(C(C)(F)F)c3F)nc(C)nc12` [SZ-022357], the values for the IC50 in assay [1] and in assay [2] were 165 nM and 3.68 nM, respectively.

For the compound `COc1c(=O)n(C2(C(F)(F)F)CC2)cc2c(N[C@H](C)c3cccc(C(C)(F)F)c3F)nc(C)nc12` [SZ-022358], the IC50 turned out to be 222 nM in assay [1] and 4.79 nM in assay [2].

Regarding `CCOc1c(=O)n(C2(C)CC2)cc2c(N[C@H](C)c3cccc(C(C)(F)F)c3F)nc(C)nc12` [SZ-022359], the values for the IC50 in assay [1] and in assay [2] were 231 nM and 8.57 nM, respectively.

Turning to `CCOc1c(=O)n(C2(C(F)(F)F)CC2)cc2c(N[C@H](C)c3cccc(C(C)(F)F)c3F)nc(C)nc12` [SZ-022360], the IC50 was found to be 221 nM in assay [1] and 9.46 nM in assay [2].

For the compound `CCOc1c(=O)n(C2(CF)CC2)cc2c(N[C@H](C)c3cccc(C(C)(F)F)c3F)nc(C)nc12` [SZ-022361], the results for the IC50 in assay [1] and in assay [2] were 164 nM and 4.62 nM, respectively.

Turning to `CCOc1c(=O)n(C2(C(F)(F)F)CC2)cc2c(N[C@H](C)c3cccc(C(F)F)c3F)nc(C)nc12` [SZ-022362], the IC50 came out at 77 nM in assay [1] and 12.4 nM in assay [2].

Take `CCOc1c(=O)n(C2(CF)CC2)cc2c(N[C@H](C)c3cccc(C(F)F)c3F)nc(C)nc12` [SZ-022363]: the values for the IC50 in assay [1] and in assay [2] were 171 nM and 7.36 nM, respectively.

Regarding `CCOc1c(=O)n(C2(C)CC2)cc2c(N[C@H](C)c3cccc(C(F)F)c3F)nc(C)nc12` [SZ-022364], the IC50 in assay [1] came out at 303 nM; in assay [2] it was 22.2 nM.

With `Cc1nc(N[C@H](C)c2cccc(C(F)F)c2F)c2cn(C3(C(F)F)CC3)c(=O)c(OCC(F)F)c2n1` [SZ-022368], the results for the IC50 in assay [1] and in assay [2] were 249 nM and 23.5 nM, respectively.

With `Cc1nc(N[C@H](C)c2cccc(C(F)(F)F)c2C)c2cn(C3(C)CC3)c(=O)c(S(C)(=O)=O)c2n1` [SZ-022371], the IC50 in assay [1] turned out to be 274 nM; in assay [2], 21.8 nM.

For the compound `COc1c(=O)n(C2(C(F)F)CC2)cc2c(N[C@H](C)c3ccc(-c4ccccc4CN(C)C)s3)nc(C)nc12` [SZ-022373], the IC50 was 42 nM in assay [1] and 1.4 nM in assay [2].

As for `COc1c(=O)n(C2(C(F)F)CC2)cc2c(N[C@H](C)c3cccc(C#N)c3C)nc(C)nc12` [SZ-022381], the IC50 in assay [1] turned out to be 741 nM; in assay [2] it was 12.3 nM.

Turning to `[2H]C([2H])([2H])Oc1c(=O)n(C2(C(F)F)CC2)cc2c(N[C@H](C)c3cccc(C#N)c3C)nc(C)nc12` [SZ-022382], the results for the IC50 in assay [1] and in assay [2] were 729 nM and 8.86 nM, respectively.

In the case of `COc1c(=O)n(C2(C(F)(F)F)CC2)cc2c(N[C@H](C)c3cccc(C#N)c3C)nc(C)nc12` [SZ-022383], the IC50 in assay [1] turned out to be 985 nM; in assay [2], 18.4 nM.

Turning to `[2H]C([2H])([2H])Oc1c(=O)n(C2(C(F)(F)F)CC2)cc2c(N[C@H](C)c3cccc(C#N)c3C)nc(C)nc12` [SZ-022384], the IC50 in assay [1] was 884 nM; in assay [2], 15.4 nM.
